Earlier results on one compound are cited in patent US6468944B1, “Method of preparing glyphosate herbicide formulations” (priority 1991, dated 2002).

Molecules are shown by their SMILES.

For `O=C(O)CNCP(=O)(O)O` [Glyphosate, N-phosphonomethylglycine], the solubility in water entry is on record as “relatively insoluble in water”.
